Test results reported in EP1377579B1 (Aventis Pharmaceuticals Inc., priority 2000, dated 2002).
Counter-ions that a name gives are not always drawn. Like-named read-outs stand apart in the source and are kept apart here.

Key:
in vivo = conditions: mouse, in vivo, iv, 3 mg/kg
Method: Male mice are given single intravenous cassette doses of CDK inhibitor compounds.
Doses are adjusted for the weight of the individual dihydrochloride and trihydrochloride salts. The compounds are stored desiccated within a closed cabinet at room temperature before use. Dose levels are prepared on the morning of each study.
A single intravenous cassette dose (18 or 15 mg/kg free base) is administered. For each compound, this is equivalent to a dose of approx. 3 mg/kg free base. […] The dose is administered at a volume of 10 ml/kg (total volume of approximately 0.25 ml/animal).
Male mice (Hsd:ICR (CD-1® SD®), Harlan), each weighing approximately 20 - 30 g at the start of the study. […] Water is available ad libitum throughout the study.
Dose Administration and Sample Collection: • A single cassette dose of 5-6 compounds is administered by bolus injection into the tail vein over a 10 - 15-second period. […] Whole blood (approximately 0.6 ml/sample) is obtained by cardiac puncture and transferred to 3 ml glass tubes containing 45 U sodium heparin.
Sample Processing: Plasma: Whole blood is centrifuged at approximately 3,200 rpm for 10 min at approximately 5°C and the plasma (approx. 0.3 ml/sample) is transferred to chilled plastic vials and stored at approx. -70°C until bioanalysis.
Sample Analysis: Concentrations of each test article in plasma are quantitated by a non-validated method based on LC/MS using the following protocol.
Samples are removed from the freezer, allowed to thaw at room temperature, and vortexed to insure complete homogenization prior to sample manipulation. Samples are then prepared according to the following scheme: • 1. transfer 48 µL of plasma (blank mouse sample) into a 12 x 75 mm test tube. • 2. add 12 µL of working standard to the blank plasma for standard curve preparation. • 3. […] Inject 25 µL on LC/MS.
Data Analysis: Concentrations of Compounds in plasma of individual animals are determined by bioanalytics. […] Statistical analyses are limited to simple expressions of variation (mean and standard deviation). The plasma AUC (area-under-curve) is determined by the linear trapezoidal rule. […] All PK parameters are determined by noncompartmental methods using WinNonlin version 3.0 (Pharsight Corp). Plasma vs. time profiles are prepared by Sigma Plot (SPSS, Inc.).

cdk1/cyclin B = cdk1/cyclin B (Homo sapiens, UniProt P06493); assay: Cyclin-dependent kinase assay, cdk1/cyclin B
Method: The IC50 values for cdk1/cyclin B, cdk2/cyclin E, and cdk4/cyclin D1 inhibition are determined using the following methods: • The cdk1 sequence (accession number Y00272) is amplified by PCR and cloned into the BamHI and SalI sites of pFASTBAC1 (Life Technologies).
The cyclin B1 sequence (accession number M25753) is amplified by PCR and cloned into the BamHI and SalI sites of pFASTBAC1 (Life Technologies).
The insect cell (Sf9) expression is optimized for each of the CDK/cyclin pairs according to the manufacturer's protocols (Life Technologies). For cdk4-HA/cyclin D1-His6 an infection of 0.1 multiplicity of infection (MOI) for 48 hours gives the best expression levels of the complex as well as activity.
The viruses are added to the cells and the culture is incubated at 27°C for the desired time. The cells are harvested by centrifugation at 3000 rpm for 10 minutes. The cells are snap frozen on dry ice and stored at - 80°C.
Cell extracts are made following a standard procedure. The cell pellet is resuspended in lysis buffer (50 mM HEPES, pH 8.0, 10 mM MgCl2, 1 mM DTT, 2.5 mM EGTA, 1 mM EDTA, 10 mM β-glycerophosphate, 1 mM sodium vanadate, 1 mM sodium fluoride, 1 x Protease inhibitor cocktail). The cells are lysed using the microfluidizer (Microfluidics) for 20 minutes. Cell debris is removed by centrifugation at 100,000 x g. The cell extracts are aliquoted in 1 ml aliquots, frozen on dry ice, and stored at -80°C.
The kinase reactions are performed following a standard procedure. The enzyme and inhibitor are diluted in kinase buffer (50 mM HEPES, pH 8.0, 10 mM MgCl2, 2.5 mM EGTA, 10 mM β-glycerophosphate, 1 mM sodium vanadate, 1 mM sodium fluoride, and 1 mM DTT) and pre-incubated for 30 minutes. […] The cdk1 enzyme activity is assayed using Histone H1 (Sigma) in the presence of 10 µM ATP for 30 min at room temperature. The reactions are terminated by the addition of 50 µL of 10 mM cold ATP to stop the reactions. The reactions are transferred to a pre-soaked 96-well multi-screen plate containing 30 µL of 100% TCA per well. After incubation for one hour at room temperature, the plates are washed twice with 200 µl of 20% TCA, followed by 200 µl of 10% TCA and finally with 200 µl of 5% TCA. After drying the plates at room temperature, the filter plates are placed in adapter plates (Packard) and 40 µl of Microscint-O® (Packard) is added to each well. Top Seal A film is used to cover the plates before counting in a Top Count Scintillation Counter.
The % remained activity of the indicated Cdk/cyclin kinase complex in the presence of inhibitor is calculated by the ratio of cpm in the presence of inhibitor to cpm in the absence of inhibitor (%Activity = vi/vo x 100%).

MDA-MB-435 = assay: In vitro proliferation assay (MTT), MDA-MB-435; type: cell-based, human; conditions: value (SD, n) where given, read-out: MB-435 Breast (IC50 µM)
Method in brief: (§1)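 A570 readout of DMSO-solubilized MTT formazan after 3-day compound exposure; IC50 from raw data. Cells plated 1000–2500/well and recovered overnight before dosing.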

cdk4/cyclin D1 = cdk4/cyclin D1 (Homo sapiens, UniProt P11802); assay: Cyclin-dependent kinase assay, cdk4/cyclin D1; type: biochemical
Sequence of cdk4/cyclin D1 (P11802 whole entry): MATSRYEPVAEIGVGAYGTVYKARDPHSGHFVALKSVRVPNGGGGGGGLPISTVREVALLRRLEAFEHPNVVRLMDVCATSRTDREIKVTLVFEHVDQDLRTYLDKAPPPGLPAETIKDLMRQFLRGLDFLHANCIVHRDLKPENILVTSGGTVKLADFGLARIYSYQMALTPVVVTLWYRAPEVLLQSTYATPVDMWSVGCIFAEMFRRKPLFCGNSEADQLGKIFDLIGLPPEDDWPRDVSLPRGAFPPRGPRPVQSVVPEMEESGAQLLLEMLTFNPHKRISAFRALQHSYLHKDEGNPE
Sequence of cdk4/cyclin D1 (P24385 whole entry partner): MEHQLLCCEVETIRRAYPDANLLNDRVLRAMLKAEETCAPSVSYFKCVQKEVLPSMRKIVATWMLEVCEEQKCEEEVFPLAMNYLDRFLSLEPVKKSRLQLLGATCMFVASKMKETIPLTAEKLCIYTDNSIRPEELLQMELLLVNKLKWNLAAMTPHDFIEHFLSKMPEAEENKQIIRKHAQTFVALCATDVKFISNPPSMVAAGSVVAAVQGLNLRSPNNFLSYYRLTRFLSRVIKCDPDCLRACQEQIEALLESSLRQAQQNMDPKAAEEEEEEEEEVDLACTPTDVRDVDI

cdk2/cyclin E = cdk2/cyclin E (Homo sapiens, UniProt P24941); assay: Cyclin-dependent kinase assay, cdk2/cyclin E
PC-3 = assay: In vitro proliferation assay (MTT), PC-3; type: cell-based, human; conditions: value (SD, n) where given, read-out: PC-3 Prostate (IC50 µM)
Method in brief: as §1

[1] = CDK1 IC50, nM, Histone H1, 10 µM ATP
[2] = Homo sapiens, MDA-MB-435, MTT assay
[3] = cyclin D1/cdk4, GST-pRb substrate, 10 µM ATP
[4] = CDK2 IC50, nM, GST-pRb substrate, 10 µM ATP

Sequence of cdk1/cyclin B (P06493 whole entry): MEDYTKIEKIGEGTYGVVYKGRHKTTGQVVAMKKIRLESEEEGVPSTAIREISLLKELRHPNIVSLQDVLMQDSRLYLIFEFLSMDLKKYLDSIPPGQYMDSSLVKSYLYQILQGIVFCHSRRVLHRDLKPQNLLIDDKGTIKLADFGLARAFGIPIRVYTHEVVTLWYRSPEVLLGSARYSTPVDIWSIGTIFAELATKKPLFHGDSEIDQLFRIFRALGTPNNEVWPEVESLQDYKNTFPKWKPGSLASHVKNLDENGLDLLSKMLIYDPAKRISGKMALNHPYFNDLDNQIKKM
Sequence of cdk1/cyclin B (P14635 whole entry partner): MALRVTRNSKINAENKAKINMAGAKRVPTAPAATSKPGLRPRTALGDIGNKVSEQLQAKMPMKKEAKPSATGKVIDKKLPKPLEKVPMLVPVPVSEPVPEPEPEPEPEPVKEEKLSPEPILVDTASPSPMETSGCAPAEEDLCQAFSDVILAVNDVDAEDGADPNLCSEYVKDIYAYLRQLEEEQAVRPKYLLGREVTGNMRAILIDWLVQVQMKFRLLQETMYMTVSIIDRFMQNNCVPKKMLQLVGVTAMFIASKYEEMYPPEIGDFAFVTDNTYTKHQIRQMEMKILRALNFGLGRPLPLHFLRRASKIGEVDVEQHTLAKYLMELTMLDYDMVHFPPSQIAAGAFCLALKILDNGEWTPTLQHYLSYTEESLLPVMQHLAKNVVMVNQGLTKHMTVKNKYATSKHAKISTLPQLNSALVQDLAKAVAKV

Compound | AUC(0-inf) (in vivo) | Cmax (in vivo) | half-life (in vivo) | IC50 (cdk1/cyclin B; [1]) | IC50 (MDA-MB-435; [2]) | IC50 (cdk4/cyclin D1; [3]) | IC50 (cdk2/cyclin E; [4]) | IC50 (PC-3; Homo sapiens, PC-3, MTT assay) | IC50 (cdk1/cyclin B; read-out: CDK1 IC50, Histone H1, 10 µM ATP) | IC50 (MDA-MB-435; MTT assay) | IC50 (cdk4/cyclin D1) | IC50 (cdk2/cyclin E; read-out: CDK2 IC50, GST-pRb substrate, 10 µM ATP) | IC50 (PC-3; MTT assay)
NC1CCC(Nc2nc(NCCCc3ccccc3)c3ncn(C4CCCC4)c3n2)CC1 (stereo not shown) [MDL 107167] | 531 ng·h/mL | 512 ng/mL | 1.7 h |  |  |  |  |  |  |  |  |  | 
CC(=O)c1cccc(NC(=O)N2CCC(Nc3nc(N[C@H]4CC[C@H](N)CC4)nc4c3ncn4C3CCCC3)CC2)c1 [compound 189, trans-4-[2-(4-Amino-cyclohexylamino)-9-cyclopentyl-9H-purin-6-ylamino]-piperidine-1-carboxylic acid (3-acetyl-phenyl)-amide dihydrochloride] |  |  |  | 20 nM | 1 µM | 66 nM | 28 nM | 1.37 µM |  |  |  |  | 
CC(C)(C)NC(=O)N1CCC(Nc2nc(N[C@H]3CC[C@H](N)CC3)nc3c2ncn3C2CCCC2)CC1 [compound 192, trans-4-[2-(4-Amino-cyclohexylamino)-9-cyclopentyl-9H-purin-6-ylamino]-piperidine-1-carboxylic acid tert-butyl-amide dihydrochloride] |  |  |  | 1000 nM | 1.49 µM | 400 nM | 237 nM | 1.89 µM |  |  |  |  | 
N#Cc1cccc(NC(=O)N2CCC(Nc3nc(N[C@H]4CC[C@H](N)CC4)nc4c3ncn4C3CCCC3)CC2)c1 [compound 194, trans-4-[2-(4-Amino-cyclohexylamino)-9-cyclopentyl-9H-purin-6-ylamino]-piperidine-1-carboxylic acid (3-cyano-phenyl)-amide dihydrochloride] |  |  |  | 40 nM | 0.72 µM | 88 nM | 15 nM | 0.89 µM |  |  |  |  | 
CCOC(=O)c1cccc(NC(=O)N2CCC(Nc3nc(N[C@H]4CC[C@H](N)CC4)nc4c3ncn4C3CCCC3)CC2)c1 [compound 195, trans-3-[(1-{4-[2-(4-Amino-cyclohexylamino)-9-cyclopentyl-9H-purin-6-ylamino]-piperidin-1-yl} -methanoyl)-amino]-benzoic acid ethyl ester dihydrochloride] |  |  |  | 50 nM | 0.33 µM | 6 nM | 28 nM | 0.38 µM |  |  |  |  | 
Cc1cccc(Cl)c1NC(=O)N1CCC(Nc2nc(N[C@H]3CC[C@H](N)CC3)nc3c2ncn3C2CCCC2)CC1 [compound 196, trans-4-[2-(4-Amino-cyclohexylamino)-9-cyclopentyl-9H-purin-6-ylamino]-piperidine-1-carboxylic acid (2-chloro-6-methyl-phenyl)-amide dihydrochloride] |  |  |  | 350 nM | 0.5 µM | 6 nM | 2 nM | 0.59 µM |  |  |  |  | 
N[C@H]1CC[C@H](Nc2nc(NC3CCN(C(=O)NCCc4ccccc4)CC3)c3ncn(C4CCCC4)c3n2)CC1 [compound 197, trans-4-[2-(4-Amino-cyclohexylamino)-9-cyclopentyl-9H-purin-6-ylamino]-piperidine-1-carboxylic acid phenethyl-amide dihydrochloride] |  |  |  | 200 nM | 0.91 µM | 381 nM | 8 nM | 1.09 µM |  |  |  |  | 
COc1cc(NC(=O)N2CCC(Nc3nc(N[C@H]4CC[C@H](N)CC4)nc4c3ncn4C3CCCC3)CC2)cc(OC)c1OC [compound 198, trans-4-[2-(4-Amino-cyclohexylamino)-9-cyclopentyl-9H-purin-6-ylamino]-piperidine-1-carboxylic acid (3,4,5-trimethoxy-phenyl)-amide dihydrochloride] |  |  |  | 40 nM | 2.85 µM | 7 nM | 20 nM | 31.8 µM |  |  |  |  | 
N[C@H]1CC[C@H](Nc2nc(NC3CCN(C(=O)Nc4c(F)cccc4C(F)(F)F)CC3)c3ncn(C4CCCC4)c3n2)CC1 [compound 201, trans-4-[2-(4-Amino-cyclohexylamino)-9-cyclopentyl-9H-purin-6-ylamino]-piperidine-1-carboxylic acid (2-fluoro-6-trifluoromethyl-phenyl)-amide dihydrochloride] |  |  |  | 170 nM | 1.53 µM | 986 nM | 41 nM | 1.9 µM |  |  |  |  | 
CCCCNC(=O)N1CCC(Nc2nc(N[C@H]3CC[C@H](N)CC3)nc3c2ncn3C2CCCC2)CC1 [compound 204, trans-4-[2-(4-Amino-cyclohexylamino)-9-cyclopentyl-9H-purin-6-ylamino]-piperidine-1-carboxylic acid butylamide dihydrochloride] |  |  |  | 200 nM | 2.53 µM | 39 nM | 51 nM | 2.64 µM |  |  |  |  | 
N[C@H]1CC[C@H](Nc2nc(NC3CCN(C(=O)NC4CCCCC4)CC3)c3ncn(C4CCCC4)c3n2)CC1 [compound 205, trans-4-[2-(4-Amino-cyclohexylamino)-9-cyclopentyl-9H-purin-6-ylamino]-piperidine-1-carboxylic acid cyclohexylamide dihydrochloride] |  |  |  | 290 nM | 1.84 µM | 3250 nM | 232 nM | 1.63 µM |  |  |  |  | 
CCCNC(=O)N1CCC(Nc2nc(N[C@H]3CC[C@H](N)CC3)nc3c2ncn3C2CCCC2)CC1 [compound 206, trans-4-[2-(4-Amino-cyclohexylamino)-9-cyclopentyl-9H-purin-6-ylamino]-piperidine-1-carboxylic acid propylamide dihydrochloride] |  |  |  | 210 nM | 2.68 µM | 85 nM | 7 nM | 2.89 µM |  |  |  |  | 
Cc1ccccc1NC(=O)N1CCC(Nc2nc(N[C@H]3CC[C@H](N)CC3)nc3c2ncn3C2CCCC2)CC1 [compound 208, trans-4-[2-(4-Amino-cyclohexylamino)-9-cyclopentyl-9H-purin-6-ylamino]-piperidine-1-carboxylic acid (2-methyl-phenyl)-amide dihydrochloride] |  |  |  | 180 nM | 0.47 µM | 73 nM | 8 nM | 0.68 µM |  |  |  |  | 
CC(C)n1cnc2c(NC3CCN(C(=O)Nc4ccc(OC(F)(F)F)cc4)CC3)nc(N[C@H]3CC[C@H](N)CC3)nc21 [compound 211, trans-4-[2-(4-Amino-cyclohexylamino)-9-isopropyl-9H-purin-6-ylamino]-piperidine-1-carboxylic acid (4-trifluoromethoxy-phenyl)-amide dihydrochloride] |  |  |  | 197 nM | 0.69 µM | 7000 nM | 612 nM | 0.56 µM |  |  |  |  | 
trans 1-{4-[2-(4-Amino-cyclohexylamino)-9-cyclopentyl-9H-purin-6-ylamino]-piperidin-1-yl}-3-(2,5-dimethoxy-phenyl)-propan-1-one dihydrochloride [compound 34] |  |  |  |  |  |  |  |  | 31 nM | 0.69 µM | 997 nM | 58 nM | 0.67 µM
